Results on 3 compounds are retold here after patent publication US8309610B2, “Crystalline forms of (1RS,3RS,6RS)-6-dimethylaminomethyl-1-(3-methoxyphenyl)cyclohexane-1,3-diol hydrochloride” (priority 2005, dated 2012).

Where a name gives a salt, the structure may show the parent alone.

Type in all cases: physicochemical
One data set in a line: solubility in water.
The nature of data set [1]: water absorption / hygroscopicity.
Data set [2] in a line: stability in organic media. The note with it: chloroform, dioxane, ethyl acetate, hexane, tetrahydrofuran, toluene; room temperature or higher (e.g. up to 40° C.).
Data set [3] can be described thus: storage in humidity chamber, polymorph conversion. The source says: Crystalline form B in an open glas container is stored in a humidity chamber at relative humidity of 35% and room temperature. Samples were taken prior to storage and after 4, 14, 19 and 21 days of storage under these conditions.
Crystalline form B in an open glas container is stored in a humidity chamber at relative humidity of 60% and room temperature. Samples were taken prior to storage and after 7, 17 and 22 days of storage under these conditions.
Crystalline form B in an open glas container is stored in a humidity chamber at relative humidity of 75% and room temperature. Samples were taken prior to storage and after 6, 13 and 23 days of storage under these conditions.

Data set [4] in a line: variable temperature X-ray powder diffraction experiment. The note with it: 90° C., after half an hour. Here is the method: Variable temperature Powder Diffraction Data Collection was carried out on a Shimadzu XRD-6000X-ray powder diffractometer using Cu Kα radiation. The instrument is equipped with a fine focus X-ray tube. The tube voltage and amperage were set to 40 kV and 40 mA, respectively. The divergence and scattering slits were set at 1° and the receiving slit was set at 0.15 mm. Diffracted radiation was detected by a NaI scintillation detector. A theta-two theta continuous scan at 3°/min (0.4 sec/0.02° step) from 2,5 to 40° 2 θ was used. A silicon standard was analyzed each day to check the instrument alignment. The instrument was equipped with an Anton Paar HTK 1200 high temperature stage and a ceramic sample holder

Take `COc1cccc([C@@]2(O)C[C@H](O)CC[C@@H]2CN(C)C)c1` (racemic) [form A, (1RS,3RS,6RS)-6-Dimethylaminomethyl-1-(3-methoxy-phenyl)cyclohexane-1,3-diol hydrochloride]: the solubility in water result in the data set “solubility in water” is on record as “very high solubility in water”. For the same compound, the “resistance to water absorption” value in data set [1] (up to 60% relative humidity, room temperature, at least up to three weeks) is “resistant to water absorption”. Moreover, in data set [2], the “stability in organic media” value was “stable in organic media”.

Regarding `COc1cccc([C@@]2(O)C[C@H](O)CC[C@@H]2CN(C)C)c1` (racemic) [form C, (1RS,3RS,6RS)-6-Dimethylaminomethyl-1-(3-methoxy-phenyl)cyclohexane-1,3-diol hydrochloride], the hygroscopicity result in data set [1] (compared with all known polymorphic forms) is “lowest hygroscopicity of all known polymorphic forms”.

As to `COc1cccc([C@@]2(O)C[C@H](O)CC[C@@H]2CN(C)C)c1` (racemic) [form B, (1RS,3RS,6RS)-6-Dimethylaminomethyl-1-(3-methoxy-phenyl)cyclohexane-1,3-diol hydrochloride], the “crystalline form found after storage” value in data set [3] was “crystalline form B only”. The “conversion to another polymorph under high humidity” value in data set [3] (high humidity) is “not converted to another polymorph”. Besides, in data set [4], the “solid form conversion on heating” value is listed as “converted to form E”.
